Assay results published in patent US7105564B1, “Pharmaceutical composition comprising a dual antagonist against PGD2/TXA2 receptors having a [2.2.1] or [3.1.1] bicyclic skeleton” (Shionogi & Co., Ltd., priority 1999, dated 2006).
Marks after values point to notes of the source that are not given here.

Tests used:
[1] = system: Male Hartley guinea pigs; experiment: Antigen-induced bronchial hyperresponsiveness; format: in vivo, guinea pig; conditions: for Log PD200: acetylcholine dose for 200% increase in bronchoconstriction; for induction of bronchial hyperresponsiveness (in words): summary of Tables 34-36
Protocol: Antigen-induced bronchial hyperresponsiveness
Male Hartley guinea pigs were actively sensitized to ovalbumin (OVA) by inhalation of aerosolized solution of 1% ovalbumin twice at a week interval. One week after the second sensitization, the animals were treated with antihistamine, diphenhydramine (10 mg/kg, i.p.), and then challenged with 1% OVA aerosol for 5 min. Twenty four hours later, acetylcholine at doses at 3.13, 6. 25, 12.5, 25, 50 and 100 micro g/kg was sequentially injected into the animals which were anesthetized with pentobarbital (30 mg/kg, i.p.). The bronchoconstriction induced by each dose of acetylcholine was monitored by the modified method of Konzett-Rössler technique, and made a dose-response curve of acetylcholine. Using the dose-response curve, the dose required for 200% increase in bronchoconstriction from baseline (PD200) was calculated in each animal and used as an indication of bronchial responsiveness. Compounds were orally administered 1 hour before antigen challenge. **: P<0.01 vs Vehicle(Dunnett's test), ##: P<0.01 vs Vehicle(Student's t test).

[2] = biological target: T1, PGD2 receptor (Homo sapiens, UniProt Q13258); experiment: Binding activity to PGD2 receptor in human platelet membrane fraction ([3H]PGD2); design: The platelets were homogenized using a homogenizer (Ultra-Turrax) followed by centrifugation 3 times at 20,000 rpm; from tissue; host or cells: human platelet membrane fraction from blood of healthy volunteers; conditions: Comparative Experiment 1; read-out: Experiment 1 Antaginistic activity against PGD2 receptor IC50
T1 sequence (Q13258 1-359): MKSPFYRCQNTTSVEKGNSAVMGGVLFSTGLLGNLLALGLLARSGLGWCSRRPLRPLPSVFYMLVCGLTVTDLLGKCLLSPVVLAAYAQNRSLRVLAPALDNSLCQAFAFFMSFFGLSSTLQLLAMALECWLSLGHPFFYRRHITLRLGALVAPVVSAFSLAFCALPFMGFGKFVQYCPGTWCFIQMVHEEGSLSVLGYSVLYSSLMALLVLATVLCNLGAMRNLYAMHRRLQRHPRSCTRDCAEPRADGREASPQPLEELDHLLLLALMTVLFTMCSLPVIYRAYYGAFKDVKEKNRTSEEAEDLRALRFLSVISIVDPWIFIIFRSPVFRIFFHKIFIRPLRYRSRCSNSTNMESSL
Protocol: Experiment 1 Binding activity to PGD2 Receptor
(1) Preparation of Human Platelet Membrane Fraction
Blood was collected using a plastic syringe containing 3.8% sodium citrate from the vein of healthy volunteers (adult male and female), then put into a plastic test tube and mixed by slow-reversion. The sample was then centrifuged at 1800 rpm, for 10 min at room temperature, and the supernatant containing PRP (platelet-rich plasma) was collected. The PRP was recentrifuged at 2300 rpm, for 22 min at room temperature to obtain platelets. The platelets were homogenized using a homogenizer (Ultra-Turrax) followed by centrifugation 3 times at 20,000 rpm, 10 min at 4° C.. to obtain a platelet membrane fraction. After protein determination, the membrane fraction was adjusted to 2 mg/ml and preserved in a refrigerator at −80° C.. until using for the binding test.
(2) Binding to PGD2 Receptor
To a binding-reaction solution (50 mM Tris/HCl, pH 7.4, 5 mM MgCl2) (0.2 ml) were added the human platelet membrane fraction (0.1 mg) and 5 nM [^3H]PGD2 (115 Ci/mmol), and the mixture was reacted at 4° C. for 90 min. After the reaction, the mixture was filtered through a glass fiber filter paper and washed several times with cooled physiological saline, then the radioactivity retained on the filter paper was measured. The specific-binding ratio was calculated by subtracting the non-specific binding ratio which is the radioactivity similarly measured in the presence of 10 μM PGD2 from the total binding.

[3] = biological target: T1, PGD2 receptor; experiment: Antagonistic activity against PGD2 receptor using human platelet (inhibition of cAMP increase caused by PGD2); format: cell-based; conditions: Comparative Experiment 1; read-out: Experiment 3 Antaginistic activity against PGD2 receptor IC50
Protocol: Experiment 3 Evaluation of Antagonistic Activity Against PGD2 Receptor Using Human Platelet
Peripheral blood was collected from a healthy volunteer using a syringe in which 1/9 volume of a citric acid/dextrose solution was previously added. The sample was subjected to centrifugation at 180 g for 10 min to obtain the supernatant (PRP: platelet rich plasma). The resultant PRP was washed 3 times with a washing buffer and the number of platelets was counted with a micro cell counter. A suspension adjusted to contain the platelets at a final concentration of 5×10^8/ml was warmed at 37° C., then subjected to the pre-treatment with 3-isobutyl-1-methylxanthine (0.5 mM) for 5 min. To the suspension was added a test compound diluted at various concentration, and 10 minutes later, 0.1 μM PGD2 was added to induce the reaction 2 minutes later, hydrochloric acid was added to terminate the reaction. The platelet was destroyed with an ultrasonic homogenizer. After centrifugation, the cAMP in the supernatant was determined by radioimmunoassay. PGD2 receptor antagonism of a drug was evaluated as follows: the inhibition rate regarding cAMP increased by the addition of PGD2 was determined at each concentration, and the concentration of the drug required for 50% inhibition (IC50) was calculated.

[4] = system: Male Hartley guinea pigs; experiment: Antigen-induced increase in the eosinophil number in bronchoalveolar lavage fluid; format: in vivo, guinea pig; conditions: for Eosinophils, inhibition % / Total cells, inhibition % / Cell number, Eosinophils / Cell number, Total cells: 10 mg/kg orally, 1 hour before and 24 and 48 hours after challenge; for Cell number, Eosinophils / Cell number, Total cells: BAL 72 hours; for eosinophil infiltration (in words): summary of Tables 37-39
Protocol: Antigen-induced increase in the eosinophil number in bronchoalveolar lavage fluid.
As described above, the animals were sensitized and challenged with antigen, seventy-two hours later, bronchoalveolar lavage was performed with 10 mL of saline. After the number of total cells in the recovered fluid was counted, smear samples were made. The samples were stained with May Grünward-Giemsa Stain, and differential cell count was performed by counting 500 cells/each sample. The eosinophil number was calculated by the ratio of the number of eosinophils, macrophages, neutrophils and lymphocytes. Compounds were orally administered three times 1 hour before and 24 and 48 hours after the challenge. The results are shown as follows. *: P<0.05, * *: P<0.01 vs Vehicle(Dunnett's test), : P<0. 01 vs Vehicle(Student's t test). ( ): inhibition %.

[5] = system: Male Hartley guinea pigs; experiment: Antigen-induced bronchoconstriction; format: in vivo, guinea pig; conditions: for antigen-induced bronchoconstriction (in words): summary of Tables 40-42
Protocol: Antigen-induced bronchoconstriction
Male Hartley guinea pigs were passively sensitized by intravenous injection of anti-OVA serum (antibody titer: 1: 3200), and 48 hours later, the animals were challenged by intravenous injection of OVA (70 micro g/kg). The bronchoconstriction induced by antigen was continuously monitored by means of modified method of Konzett-Rössler technique. The peak value of bronchoconstriction in each animal was used for evaluation of compounds. Compound (I-1b) and compound (B-2) were orally administered 1 hour before, compound (A) 2 hours before antigen challenge. The results are shown as follows. *: P<0.05 vs Vehicle, ##: P<0.01 vs Vehicle. ( ): inhibition %.

[6] = 1 mg/kg orally 1 hour before antigen challenge
[7] = 10 mg/kg orally 1 hour before antigen challenge
[8] = 3 mg/kg orally 2 hours before antigen challenge
[9] = 10 mg/kg orally 2 hours before antigen challenge
[10] = 30 mg/kg orally 1 hour before antigen challenge

Row | Compound | Log PD200 [1, 6] | Log PD200 [1, 7] | induction of bronchial hyperresponsiveness (in words) [1] | IC50 [2] [µM] | IC50 [3] [µM] | Eosinophils, inhibition % [4] [%] | Total cells, inhibition % [4] [%] | Cell number, Eosinophils [4] | Cell number, Total cells [4] | eosinophil infiltration (in words) [4] | Peak bronchoconstriction [5, 8] [cm H2O] | Peak bronchoconstriction, inhibition % [5, 8] [%] | Peak bronchoconstriction [5, 9] [cm H2O] | Peak bronchoconstriction, inhibition % [5, 9] [%] | antigen-induced bronchoconstriction (in words) [5] | Peak bronchoconstriction [5, 6] [cm H2O] | Peak bronchoconstriction, inhibition % [5, 6] [%] | Peak bronchoconstriction [5, 10] [cm H2O] | Peak bronchoconstriction, inhibition % [5, 10] [%]
1 | O=C(O)CCC/C=C\C[C@H]1[C@@H]2CC[C@@H](C2)[C@@H]1NS(=O)(=O)c1ccccc1 [A] | 1.29 ± 0.04 | 1.61 ± 0.09** | suppressed | > 10 | > 10 | −18 | −18 | 4.90 ± 0.73 ×10^6 cells/animal | 13.78 ± 1.75 ×10^6 cells/animal | did not show any inhibitory actions | 55.3 ± 6.7 | 7 | 18.8 ± 3.3 | 68 | dramatically suppressed | – | – | – | –
2 | CC1(C)[C@H]2C[C@H](C/C=C\CCCC(=O)O)[C@@H](NC(=O)c3csc4ccc(O)cc34)[C@@H]1C2 [Compound B-2] | – | 1.17 ± 0.05 | did not inhibit | – | – | 43 | 45 | 4.49 ± 0.63 ×10^6 cells/animal | 13.01 ± 1.58 ×10^6 cells/animal | significantly suppressed | – | – | – | – | did not suppress | 36.5 ± 18.2 | −20 | 51.8 ± 16.3 | −71
